According to patent US12543734B2, “Herbicidal compositions comprising dimethenamid” (BASF SE, priority 2024, dated 2026):

Legend:
Format in all cases: in vivo
Helanthus annuus (HELAN) [1] = assay: Example 4 post-emergence field trial (1% MSO and AMS); conditions: height 10-20 cm, 20 DAT, A-1 12.5 g ai/ha, B-2 735 g ai/ha
Procedure: (§1) In the examples below, using the method of S. R. Colby (1967) “Calculating synergistic and antagonistic responses of herbicide combinations”, Weeds 15, p. 22ff., the value E, which is expected if the activity of the individual active compounds is only additive, was calculated:
(§2) [formula] • where • X=percent activity using active herbicide A at an application rate a; • Y=percent activity using active herbicide B (e.g. DMTA-p) at an application rate b; • E=expected activity (in %) by A+B at application rates a+b.
(§3) If the value found experimentally is higher than the value E calculated according to Colby, a synergistic effect is present.
(§4) On field test sites, natural weed infestation or seeded weeds were treated post-emergence of the weeds.
(§5) In the field trials, the weeds were treated as indicated below.
(§6) In the following experiments, the herbicidal activity for the individual herbicidal compositions (solo and mixture applications) was assessed at the indicated days after treatment (DAT). The assessments for the damage on undesired weeds caused by the composition was carried out using a scale from 0 to 100%, compared to the untreated control plants. Here, 0 means no damage and 100 means complete destruction of the plants.
(§7) Post-Emergence Application of Herbicide A-1 (A-1) and Dimethenamid-P (DMTA-p; B-2) in Field Trials
(§8) Herbicide A-1 (100 g/l) and DMTA-p (720 g/l) were, together with addition of 1% MSO (methylated sed oil) and AMS (ammonium sulfate) as adjuvant, formulated in water as distribution medium (water volume 200 l/ha) and sprayed with commercial flat fan nozzles.

Glycine max (GLXMA) [2] = assay: as above; conditions: 21-24 DAT, A-1 12.5 g ai/ha, B-2 735 g ai/ha
Procedure: as §1, §2, §3, §4, §5, §6, §7, §8

Sorghum bicolor (SORVU) [3] = assay: as above; conditions: height 15-20 cm, 20 DAT, A-1 12.5 g ai/ha, B-2 735 g ai/ha
Procedure: as §1, §2, §3, §4, §5, §6, §7, §8

Eleusine indica (ELEIN) [4] = assay: as above; conditions: height 15-20 cm, 21-24 DAT, A-1 12.5 g ai/ha, B-2 735 g ai/ha
Procedure: as §1, §2, §3, §4, §5, §6, §7, §8

Zea mays (ZEAMX) [5] = assay: as above; conditions: 21-24 DAT, B-2 735 g ai/ha
Procedure: as §1, §2, §3, §4, §5, §6, §7, §8

Glycine max (GLXMA) [6] = assay: Example 3 post-emergence field trial, volunteer crop plants (1% MSO); conditions: height 6-15 cm, 20 DAT, A-1 30 g ai/ha, B-2 735 g ai/ha
Procedure: as §1, §2, §3, §4, §5, §6, §7
(§9) Herbicide A-1 (100 g/l) and DMTA-p (720 g/l) were, together with addition of 1% MSO (methylated sed oil) as adjuvant, formulated in water as distribution medium (water volume 200 l/ha) and sprayed with commercial flat fan nozzles.

Zea mays (ZEAMX) [7] = assay: as above; conditions: height 43-51 cm, 20 DAT, B-2 735 g ai/ha
Procedure: as §1, §2, §3, §4, §5, §6, §7, §9

[8] = system: Chenopodium album (CHEAL); assay: Example 2 post-emergence field trial (1% MSO and AMS); conditions: height 17-23 cm, 21-24 DAT, A-1 12.5 g ai/ha, B-2 735 g ai/ha
Procedure: as §1, §2, §3, §4, §5, §6, §7, §8

[9] = system: Digitaria sanguinalis (DIGSA); assay: as above; conditions: height 2-8 cm, 18-21 DAT, A-1 25 g ai/ha, B-2 735 g ai/ha
Procedure: as §1, §2, §3, §4, §5, §6, §7, §8

[10] = system: Amaranthus palmeri (AMAPA); assay: as above; conditions: B-2 735 g ai/ha
Procedure: as §1, §2, §3, §4, §5, §6, §7, §8

[11] = system: Echinochloa crus-galli (ECHCG); assay: as above; conditions: height 7-15 cm, 18-21 DAT, B-2 735 g ai/ha
Procedure: as §1, §2, §3, §4, §5, §6, §7, §8

[12] = system: Portulaca oleracea (POROL); assay: as above; conditions: B-2 735 g ai/ha
Procedure: as §1, §2, §3, §4, §5, §6, §7, §8

Eleusine indica (ELEIN) [13] = assay: as above; conditions: B-2 735 g ai/ha
Procedure: as §1, §2, §3, §4, §5, §6, §7, §8

[14] = system: Amaranthus retroflexus (AMARE); assay: as above; conditions: B-2 735 g ai/ha
Procedure: as §1, §2, §3, §4, §5, §6, §7, §8

[15] = system: Amaranthus tamariscinus (AMATA); assay: as above; conditions: B-2 735 g ai/ha
Procedure: as §1, §2, §3, §4, §5, §6, §7, §8

[16] = system: Abutilon theophrasti (ABUTH); assay: as above; conditions: height 10-20 cm, 21-24 DAT, A-1 12.5 g ai/ha, B-2 735 g ai/ha
Procedure: as §1, §2, §3, §4, §5, §6, §7, §8

[17] = system: Digitaria sanguinalis (DIGSA); assay: Example 1 post-emergence field trial (1% MSO); conditions: height 2-13 cm, 20-21 DAT, A-1 20 g ai/ha, B-2 735 g ai/ha
Procedure: as §1, §2, §3, §4, §5, §6, §7, §9

Helanthus annuus (HELAN) [18] = assay: Example 1 post-emergence field trial (1% MSO); conditions: height 20-25 cm, 20-21 DAT, A-1 20 g ai/ha, B-2 735 g ai/ha
Procedure: as §1, §2, §3, §4, §5, §6, §7, §9

Setaria faberi (SETFA) = assay: Example 1 post-emergence field trial (1% MSO); conditions: height 7-13 cm, 20-21 DAT, A-1 20 g ai/ha, B-2 735 g ai/ha
Procedure: as §1, §2, §3, §4, §5, §6, §7, §9

Sorghum bicolor (SORVU) [19] = assay: Example 1 post-emergence field trial (1% MSO); conditions: height 25-30 cm, 20-21 DAT, A-1 30 g ai/ha, B-2 735 g ai/ha
Procedure: as §1, §2, §3, §4, §5, §6, §7, §9

[20] = system: Amaranthus palmeri (AMAPA); assay: Example 1 post-emergence field trial (1% MSO); conditions: 20-21 DAT, B-2 735 g ai/ha
Procedure: as §1, §2, §3, §4, §5, §6, §7, §9

[21] = system: Echinochloa crus-galli (ECHCG); assay: Example 1 post-emergence field trial (1% MSO); conditions: height 10-15 cm, 20-21 DAT, B-2 735 g ai/ha
Procedure: as §1, §2, §3, §4, §5, §6, §7, §9

Setaria viridis (SETVI) = assay: Example 1 post-emergence field trial (1% MSO); conditions: height 7-13 cm, 20-21 DAT, A-1 20 g ai/ha, B-2 735 g ai/ha
Procedure: as §1, §2, §3, §4, §5, §6, §7, §9

[22] = system: Amaranthus tamariscinus (AMATA); assay: Example 1 post-emergence field trial (1% MSO); conditions: height 20-25 cm, 20-21 DAT, A-1 20 g ai/ha, B-2 735 g ai/ha
Procedure: as §1, §2, §3, §4, §5, §6, §7, §9

[23] = height 7-15 cm, 18-21 DAT, A-1 12.5 g ai/ha
[24] = height 7-15 cm, 18-21 DAT, A-1 25 g ai/ha
[25] = height 20-25 cm, 21-24 DAT, A-1 12.5 g ai/ha
[26] = height 2-13 cm, 18-21 DAT, A-1 25 g ai/ha
[27] = height 10-20 cm, 21-24 DAT, A-1 12.5 g ai/ha
[28] = height 10-20 cm, 21-24 DAT, A-1 25 g ai/ha
[29] = height 7-10 cm, 18-21 DAT, A-1 12.5 g ai/ha
[30] = height 7-10 cm, 18-21 DAT, A-1 25 g ai/ha
[31] = height 15-20 cm, 21-24 DAT, A-1 25 g ai/ha
[32] = height 17-28 cm, 21-24 DAT, A-1 12.5 g ai/ha
[33] = height 5-13 cm, 18-21 DAT, A-1 12.5 g ai/ha
[34] = height 10-18 cm, A-1 20 g ai/ha
[35] = height 10-18 cm, A-1 30 g ai/ha

COC[C@H](C)N(C(=O)CCl)c1c(C)csc1C [B-2, dimethenamid-P]
% herbicidal activity (Helanthus annuus (HELAN) [1]): 0%
% herbicidal activity (Glycine max (GLXMA) [2]): 0%
% herbicidal activity (Sorghum bicolor (SORVU) [3]): 0%
% herbicidal activity (Eleusine indica (ELEIN) [4]): 0%
% herbicidal activity (Zea mays (ZEAMX) [5]; A-1 12.5 g ai/ha): 0%
% herbicidal activity (Zea mays (ZEAMX) [5]; A-1 25 g ai/ha): 0%
% herbicidal activity (Glycine max (GLXMA) [6]): 0%
% herbicidal activity (Zea mays (ZEAMX) [7]; A-1 20 g ai/ha): 0%
% herbicidal activity (Zea mays (ZEAMX) [7]; A-1 30 g ai/ha): 0%
% herbicidal activity [8]: 0%
% herbicidal activity [9]: 5%
% herbicidal activity [10, 23]: 0%
% herbicidal activity [10, 24]: 0%
% herbicidal activity [10, 25]: 0%
% herbicidal activity ([11]; A-1 12.5 g ai/ha): 0%
% herbicidal activity ([11]; A-1 25 g ai/ha): 0%
% herbicidal activity [12, 26]: 7%
% herbicidal activity [12, 27]: 28%
% herbicidal activity [12, 28]: 28%
% herbicidal activity (Eleusine indica (ELEIN) [13]; [29]): 0%
% herbicidal activity (Eleusine indica (ELEIN) [13]; [30]): 0%
% herbicidal activity (Eleusine indica (ELEIN) [13]; [31]): 0%
% herbicidal activity [14, 24]: 0%
% herbicidal activity [14, 28]: 47%
% herbicidal activity [14, 32]: 0%
% herbicidal activity [15, 33]: 15%
% herbicidal activity [15, 24]: 0%
% herbicidal activity [15, 28]: 47%
% herbicidal activity [15, 32]: 0%
% herbicidal activity [16]: 35%
% herbicidal activity [17]: 0%
% herbicidal activity (Helanthus annuus (HELAN) [18]): 0%
% herbicidal activity (Setaria faberi (SETFA)): 0%
% herbicidal activity (Sorghum bicolor (SORVU) [19]): 0%
% herbicidal activity ([20]; height 2-12 cm, A-1 20 g ai/ha): 37%
% herbicidal activity ([20]; height 2-12 cm, A-1 30 g ai/ha): 37%
% herbicidal activity [20, 34]: 0%
% herbicidal activity [20, 35]: 0%
% herbicidal activity ([21]; A-1 20 g ai/ha): 0%
% herbicidal activity ([21]; A-1 30 g ai/ha): 0%
% herbicidal activity (Setaria viridis (SETVI)): 0%
% herbicidal activity [22]: 0%

CCOC(=O)COc1ccccc1Oc1nc(-n2c(=O)cc(C(F)(F)F)n(C)c2=O)c(F)cc1Cl [A-1, ethyl 2-[2-[[3-chloro-5-fluoro-6-[3-methyl-2,6-dioxo-4-(trifluoromethyl)pyrimidin-1-yl]-2-pyridyl]oxy]phenoxy]acetate]
% herbicidal activity (Helanthus annuus (HELAN) [1]): 93%
% herbicidal activity (Glycine max (GLXMA) [2]): 90%
% herbicidal activity (Sorghum bicolor (SORVU) [3]): 87%
% herbicidal activity (Eleusine indica (ELEIN) [4]): 27%
% herbicidal activity (Zea mays (ZEAMX) [5]; A-1 12.5 g ai/ha): 67%
% herbicidal activity (Zea mays (ZEAMX) [5]; A-1 25 g ai/ha): 83%
% herbicidal activity (Glycine max (GLXMA) [6]): 98%
% herbicidal activity (Zea mays (ZEAMX) [7]; A-1 20 g ai/ha): 72%
% herbicidal activity (Zea mays (ZEAMX) [7]; A-1 30 g ai/ha): 88%
% herbicidal activity [8]: 77%
% herbicidal activity [9]: 97%
% herbicidal activity [10, 23]: 42%
% herbicidal activity [10, 24]: 64%
% herbicidal activity [10, 25]: 74%
% herbicidal activity ([11]; A-1 12.5 g ai/ha): 82%
% herbicidal activity ([11]; A-1 25 g ai/ha): 85%
% herbicidal activity [12, 26]: 93%
% herbicidal activity [12, 27]: 80%
% herbicidal activity [12, 28]: 87%
% herbicidal activity (Eleusine indica (ELEIN) [13]; [29]): 18%
% herbicidal activity (Eleusine indica (ELEIN) [13]; [30]): 78%
% herbicidal activity (Eleusine indica (ELEIN) [13]; [31]): 55%
% herbicidal activity [14, 24]: 85%
% herbicidal activity [14, 28]: 82%
% herbicidal activity [14, 32]: 67%
% herbicidal activity [15, 33]: 90%
% herbicidal activity [15, 24]: 85%
% herbicidal activity [15, 28]: 77%
% herbicidal activity [15, 32]: 67%
% herbicidal activity [16]: 98%
% herbicidal activity [17]: 97%
% herbicidal activity (Helanthus annuus (HELAN) [18]): 99%
% herbicidal activity (Setaria faberi (SETFA)): 97%
% herbicidal activity (Sorghum bicolor (SORVU) [19]): 93%
% herbicidal activity ([20]; height 2-12 cm, A-1 20 g ai/ha): 99%
% herbicidal activity ([20]; height 2-12 cm, A-1 30 g ai/ha): 99%
% herbicidal activity [20, 34]: 77%
% herbicidal activity [20, 35]: 80%
% herbicidal activity ([21]; A-1 20 g ai/ha): 77%
% herbicidal activity ([21]; A-1 30 g ai/ha): 80%
% herbicidal activity (Setaria viridis (SETVI)): 97%
% herbicidal activity [22]: 70%
